For this test, the system named is HK-2 cells. Put plainly: Cellular uptake (fluorescence microscope, FACS, ICP-MS). Type of test: cell-based, human. The following applies: 4 hours, non-ROS conditions. On the procedure:
For uptake studies, HK-2 cells (3×10^4 cells/well) were seeded onto Lab-Tek® Chamber Slides and cultured overnight. […] Untreated cells were used as a control. After incubation, the medium was aspirated, followed by performing DPBS wash and 4% paraformaldehyde (PFA) fixation. The cells were then counterstained with 4′,6-diamidino-2-phenylindole (DAPI). A fluorescence intensity of IR780 was analyzed by fluorescence microscope (Evos FL Auto 2, Thermo Fisher Scientific) to determine IR780 uptake by cells. To confirm the effect of ROS on intracellular distribution and release, ROS conditions were mimicked by treating the cells with 200 μM H2O2 for 2 hours or culturing the cells in a hypoxia chamber for 2 days before treatment. Cellular uptake was further quantified by flow cytometry. Briefly, 1×10^5 HK-2 cells/well were seeded in a 12-well plate and incubated overnight. The medium was aspirated, another sample was added and incubated for 4 hours. […] The cells were then re-suspended in FACS buffer containing 3% FBS, and fluorescence-activated cell sorting (FACS) was performed to determine the uptake capacity of each group. […] The cellular uptake of the final PTC-M nanocomposite was determined by ICP-MS analysis. […] Aqua regia (1 ml) was added to the final pellets for digestion, then the sample was diluted and analyzed for manganese content by ICP-MS. […]

On to IR780 iodide, for which the “cellular uptake (IR780 fluorescence, microscope)” value is “higher uptake rate regardless of nanomicelle loading”.

Source of the values: patent US20240390513A1, “PHARMACEUTICAL COMPOSITION FOR TREATING INFLAMMATORY DISEASES” (INDUSTRY FOUNDATION OF CHONNAM NATIONAL UNIVERSITY, priority 2021, published 2024).
